Source: patent publication US10112926B2 (priority 2014, dated 2018)
Structures can show the parent of a compound that is named as a salt.

Experiments:
[1] = molecular target: mTOR (Homo sapiens (Human), UniProt P42345); conditions: read-out: Assay G mTOR IC50
[2] = molecular target: Vps34 (Homo sapiens (Human), UniProt Q8NEB9); conditions: read-out: Assay C VPS34 IC50
[3] = molecular target: PI 4-kinase beta (Homo sapiens (Human), UniProt Q9UBF8); conditions: read-out: Assay D PI4Kβ IC50
PI 4-kinase beta, sequence (Q9UBF8 whole entry): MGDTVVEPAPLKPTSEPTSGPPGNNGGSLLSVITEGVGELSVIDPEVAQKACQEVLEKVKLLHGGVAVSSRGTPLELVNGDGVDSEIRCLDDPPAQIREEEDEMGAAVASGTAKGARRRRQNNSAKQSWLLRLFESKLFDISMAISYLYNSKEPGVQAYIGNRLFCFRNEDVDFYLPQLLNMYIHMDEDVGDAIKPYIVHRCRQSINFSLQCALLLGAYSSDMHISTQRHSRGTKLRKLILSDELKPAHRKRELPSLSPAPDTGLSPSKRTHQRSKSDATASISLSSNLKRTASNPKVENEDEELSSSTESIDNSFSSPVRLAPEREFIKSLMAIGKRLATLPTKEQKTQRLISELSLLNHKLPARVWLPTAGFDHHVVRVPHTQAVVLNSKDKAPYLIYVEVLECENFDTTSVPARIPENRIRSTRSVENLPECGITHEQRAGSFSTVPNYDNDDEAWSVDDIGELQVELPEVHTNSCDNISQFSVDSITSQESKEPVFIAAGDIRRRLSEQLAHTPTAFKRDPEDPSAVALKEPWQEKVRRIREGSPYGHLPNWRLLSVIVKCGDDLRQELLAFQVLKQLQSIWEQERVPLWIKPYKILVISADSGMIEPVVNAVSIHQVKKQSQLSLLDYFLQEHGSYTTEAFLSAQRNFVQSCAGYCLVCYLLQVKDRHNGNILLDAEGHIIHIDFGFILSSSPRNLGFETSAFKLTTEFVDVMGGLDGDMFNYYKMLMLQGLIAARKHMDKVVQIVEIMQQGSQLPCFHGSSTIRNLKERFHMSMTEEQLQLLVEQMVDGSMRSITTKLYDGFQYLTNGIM

Vps34, sequence (Q8NEB9 whole entry): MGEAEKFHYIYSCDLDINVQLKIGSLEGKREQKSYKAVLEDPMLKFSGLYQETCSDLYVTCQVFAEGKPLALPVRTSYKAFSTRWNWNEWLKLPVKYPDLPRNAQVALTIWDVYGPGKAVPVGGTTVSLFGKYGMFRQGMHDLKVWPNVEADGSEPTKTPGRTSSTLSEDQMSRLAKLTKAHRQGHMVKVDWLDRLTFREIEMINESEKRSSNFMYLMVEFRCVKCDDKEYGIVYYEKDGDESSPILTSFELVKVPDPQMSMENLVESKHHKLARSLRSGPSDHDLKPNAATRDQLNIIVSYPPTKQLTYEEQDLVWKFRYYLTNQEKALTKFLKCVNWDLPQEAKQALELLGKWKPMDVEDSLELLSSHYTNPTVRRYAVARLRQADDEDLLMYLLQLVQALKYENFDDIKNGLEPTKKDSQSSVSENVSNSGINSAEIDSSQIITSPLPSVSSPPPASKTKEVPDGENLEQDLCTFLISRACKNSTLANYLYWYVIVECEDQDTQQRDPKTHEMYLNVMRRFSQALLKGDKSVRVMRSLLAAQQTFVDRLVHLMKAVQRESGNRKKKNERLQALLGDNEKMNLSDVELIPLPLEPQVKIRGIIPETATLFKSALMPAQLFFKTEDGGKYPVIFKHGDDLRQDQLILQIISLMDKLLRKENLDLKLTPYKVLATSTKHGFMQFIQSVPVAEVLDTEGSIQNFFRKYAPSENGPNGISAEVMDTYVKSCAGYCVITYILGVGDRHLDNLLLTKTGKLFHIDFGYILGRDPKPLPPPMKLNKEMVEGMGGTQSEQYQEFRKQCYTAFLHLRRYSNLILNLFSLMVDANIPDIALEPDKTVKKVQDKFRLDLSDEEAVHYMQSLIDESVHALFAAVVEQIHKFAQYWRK

| Compound | IC50 [1] [µM] | IC50 [2] [µM] | IC50 [3] [µM] |
| --- | --- | --- | --- |
| Cc1noc(-c2cc(-c3cc(S(=O)(=O)NC4CC(O)C4)ccc3C)cnc2N)n1 (mixture of isomers) [Example 5.5, Diastereomers of 3-(6-Amino-5-(3-methyl-1,2,4-oxadiazol-5-yl)pyridin-3-yl)-N-(3-hydroxycyclobutyl)-4-methylbenzene sulfonamide hydrochloride] | > 10 | > 10 |  |
| Cc1cccc(NS(=O)(=O)c2ccc(C)c(-c3cnc(N)c(-c4cnn(CC(F)(F)F)c4)c3)c2)n1 [Example 1, 3-{6-Amino-5-[1-(2,2,2-trifluoro-ethyl)-1H-pyrazol-4-yl]-pyridin-3-yl}-4-methyl-N-(6-methyl-pyridin-2-yl)-benzenesulfonamide] | 2.37 | > 9.1 | 1.95 |
| Cc1ccc(S(=O)(=O)NCCC(C)(C)O)cc1-c1cnc(N)c(-c2cnn(C)c2)c1 [Example 2, 3-(6-Amino-5-(1-methyl-1H-pyrazol-4-yl)pyridin-3-yl)-N-(3-hydroxy-3-methylbutyl)-4-methylbenzenesulfonamide] | > 9.1 | > 9.1 | 5.4 |
| Cc1ncc(-c2cc(-c3cc(S(=O)(=O)NCCC(C)(C)O)ccc3C)cnc2N)s1 [Example 4, 3-(6-Amino-5-(2-methylthiazol-5-yl)pyridin-3-yl)-N-(3-hydroxy-3-methylbutyl)-4-methylbenzenesulfonamide] | 2.63 |  | 1.44 |
| Cc1ccc(S(=O)(=O)N[C@H]2CC[C@H](O)CC2)cc1-c1cnc(N)c(-c2cnn(CC(F)(F)F)c2)c1 [Example 4.2, trans 3-(6-Amino-5-(1-(2,2,2-trifluoroethyl)-1H-pyrazol-4-yl)pyridin-3-yl)-N-(4-hydroxycyclohexyl)-4-methyl-benzenesulfonamide] | 1.3 | > 10 | 0.65 |
| Cc1ccc(S(=O)(=O)NCC(C)(C)O)cc1-c1cnc(N)c(-c2cnn(C)n2)c1 [Example 4.4, 3-(6-amino-5-(2-methyl-2H-1,2,3-triazol-4-yl)pyridin-3-yl)-N-(2-hydroxy-2-methylpropyl)-4-methylbenzenesulfonamide hydrochloride] | > 10 | > 10 | 8.2 |
| Cc1ccc(S(=O)(=O)N[C@H]2CC[C@H](O)CC2)cc1-c1cnc(N)c(-c2cnn(C)n2)c1 [Example 4.5, trans 3-(6-Amino-5-(2-methyl-2H-1,2,3-triazol-4-yl)pyridin-3-yl)-N-(4-hydroxycyclohexyl)-4-methylbenzene sulfonamide hydrochloride] | > 10 | > 10 | 5.25 |
| CCc1cc(-c2cc(-c3cc(S(=O)(=O)NCC(C)(C)O)ccc3C)cnc2N)on1 [Example 4.6, 3-(6-Amino-5-(3-ethylisoxazol-5-yl)pyridin-3-yl)-N-(2-hydroxy-2-methylpropyl)-4-methyl-benzenesulfonamide hydrochloride] | 1.4 | > 10 | 2.7 |
| Cc1cc(-c2cc(-c3cc(S(=O)(=O)NC[C@H]4CCOC4)ccc3C)cnc2N)on1 [Example 4.7, (R)-3-(6-Amino-5-(3-methylisoxazol-5-yl)pyridin-3-yl)-4-methyl-N-((tetra hydrofuran-3-yl)methyl)benzene-sulfonamide hydrochloride] | 7.7 | > 10 | 1.7 |
| CCc1noc(-c2cc(-c3cc(S(=O)(=O)NCC(C)(C)O)ccc3C)cnc2N)n1 [Example 5.3, 3-(6-Amino-5-(3-ethyl-1,2,4-oxadiazol-5-yl)pyridin-3-yl)-N-(2-hydroxy-2-methylpropyl)-4-methylbenzenesulfon-amide hydrochloride] | > 10 | > 10 |  |
| Cc1noc(-c2cc(-c3cc(S(=O)(=O)N[C@H]4C[C@@H](O)C4)ccc3C)cnc2N)n1 [Example 5.5a, 3-(6-Amino-5-(3-methyl-1,2,4-oxadiazol-5-yl)pyridin-3-yl)-N-((1s,3s)-3-hydroxycyclobutyl)-4-methylbenzenesulfonamide] | > 10 | > 10 |  |
| Cc1ncc(-c2cc(-c3cc(S(=O)(=O)NCC(C)(C)O)ccc3C)cnc2N)s1 [Example 15, 3-[6-Amino-5-(2-methyl-thiazol-5-yl)-pyridin-3-yl]-N-(2-hydroxy-2-methyl-propyl)-4-methyl-benzenesulfonamide] | 7.9 | 1.62 |  |
| Cc1cc(-c2cc(-c3cc(S(=O)(=O)NCCC(C)(C)O)ccc3C)cnc2N)ccn1 [Example 16, 3-(2-Amino-2′-methyl-[3,4′]bipyridinyl-5-yl)-N-(3-hydroxy-3-methyl-butyl)-4-methyl-benzenesulfonamide] | > 9.1 | > 9.1 |  |
| Cc1cc(-c2cc(-c3cc(S(=O)(=O)NCC4(C)COC4)ccc3C)cnc2N)on1 [Example 17, 3-[6-Amino-5-(3-methyl-isoxazol-5-yl)-pyridin-3-yl]-4-methyl-N-(3-methyl-oxetan-3-ylmethyl)-benzenesulfonamide hydrochloride] | 8.5 | 8.1 |  |
| COC1(C)CN(S(=O)(=O)c2ccc(C)c(-c3cnc(N)c(-c4nc(C)no4)c3)c2)C1 [Example 37.2, 5-(5-((3-Methoxy-3-methylazetidin-1-yl)sulfonyl)-2-methylphenyl)-3-(3-methyl-1,2,4-oxadiazol-5-yl)pyridin-2-amine] | > 10 |  | > 10 |
| Cc1cc(-c2cc(-c3cc(S(=O)(=O)NCC4(CO)CCCCC4)ccc3C)cnc2N)on1 [Example 37.3, 3-(6-Amino-5-(3-methylisoxazol-5-yl)pyridin-3-yl)-N-((1-(hydroxymethyl)cyclohexyl)methyl)-4-methylbenzenesulfonamide] | 3 | > 10 |  |
| Cc1noc(-c2cc(-c3cc(S(=O)(=O)NCC4CCCO4)ccc3C)cnc2N)n1 (stereo not shown) [Example 57, 3-(6-Amino-5-(3-methyl-1,2,4-oxadiazol-5-yl)pyridin-3-yl)-4-methyl-N-((tetrahydrofuran-2-yl)methyl)benzenesulfonamide] | 2.4 |  | > 10 |
| Cc1ccc(S(=O)(=O)NCC(C)(C)O)cc1-c1cnc(N)c(-c2cnoc2C)c1 [Example 62, 3-(6-Amino-5-(5-methylisoxazol-4-yl)pyridin-3-yl)-N-(2-hydroxy-2-methylpropyl)-4-methylbenzenesulfonamide] | > 10 |  | 6.6 |
| Cc1ccc(S(=O)(=O)NCC(C)(C)O)cc1-c1cnc(N)c(-c2nc(C(F)F)no2)c1 [Example 71, 3-(6-Amino-5-(3-(difluoromethyl)-1,2,4-oxadiazol-5-yl)pyridin-3-yl)-N-(2-hydroxy-2-methylpropyl)-4-methylbenzenesulfonamide hydrochloride] | > 10 |  | 10 |
| Cc1cc(-c2cc(-c3cc(S(=O)(=O)NCCO)ccc3C)cnc2N)on1 [Example 73, 3-(6-Amino-5-(3-methylisoxazol-5-yl)pyridin-3-yl)-N-(2-hydroxyethyl)-4-methylbenzenesulfonamide] | > 10 | > 10 |  |
| Cc1ncc(-c2cc(-c3cc(S(=O)(=O)N[C@H]4CC[C@H](O)CC4)ccc3C)cnc2N)o1 [Example 98, 3-(6-amino-5-(2-methyloxazol-5-yl)pyridin-3-yl)-N-((1r,4r)-4-hydroxycyclohexyl)-4-methylbenzenesulfonamide hydrochloride] | 7.9 |  | 0.83 |
